Here are results for 22 molecules from PubChem BioAssay AID200 (DTP/NCI, 2004).

SMILES strings stand for the structures. Several values for one entry are separate records, joined by “and”; a condition that tells them apart may be missing. Equal entries are not always repeated. Inconclusive results and toxic doses are left out.

This test relates to B6C3F1 mice, B16 melanoma ip, median survival T/C. The experiment in a line: NCI In Vivo Anticancer Drug Screen. Data for tumor model B16 Melanoma (intraperitoneal) in B6C3F1 mice. Particulars: endpoint: median survival time, higher = longer survival. A digest of the protocol: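 Tumor-bearing mice received test compound; a separate group got vehicle only. Survival was then compared, with results reported as treated over control.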

Where [1] appears, read: dose: 50.0 mg/kg/injection, schedule: Q01DX009 (ip), vehicle: saline with Tween-80.
Where [2] appears, read: dose: 100.0 mg/kg/injection, schedule: Q01DX009 (ip), vehicle: saline with Tween-80.
[3] abbreviates: dose: 6.25 mg/kg/injection, schedule: Q01DX009 (ip), vehicle: saline with Tween-80.
Setting [4] is: dose: 12.5 mg/kg/injection, schedule: Q01DX009 (ip), vehicle: saline with Tween-80.
Setting [5] is: dose: 25.0 mg/kg/injection, schedule: Q01DX009 (ip), vehicle: saline with Tween-80.
The mark [6] stands for this setting: dose: 200.0 mg/kg/injection, schedule: Q01DX009 (ip), vehicle: saline with Tween-80.
The mark [7] stands for this setting: dose: 400.0 mg/kg/injection, schedule: Q01DX009 (ip), vehicle: saline with Tween-80.
Setting [8] is: dose: 12.5 mg/kg/injection, schedule: Q01DX009 (ip), vehicle: saline.
The mark [9] stands for this setting: dose: 25.0 mg/kg/injection, schedule: Q01DX009 (ip), vehicle: Klucel (hydroxypropylcellulose) (HPC).
Where [10] appears, read: dose: 50.0 mg/kg/injection, schedule: Q01DX009 (ip), vehicle: Klucel (hydroxypropylcellulose) (HPC).
Where [11] appears, read: dose: 6.25 mg/kg/injection, schedule: Q01DX009 (ip), vehicle: Klucel (hydroxypropylcellulose) (HPC).
The mark [12] stands for this setting: dose: 12.5 mg/kg/injection, schedule: Q01DX009 (ip), vehicle: Klucel (hydroxypropylcellulose) (HPC).
[13] abbreviates: dose: 1.5 mg/kg/injection, schedule: Q01DX009 (ip), vehicle: Klucel (hydroxypropylcellulose) (HPC).
[14] abbreviates: dose: 3.0 mg/kg/injection, schedule: Q01DX009 (ip), vehicle: Klucel (hydroxypropylcellulose) (HPC).
The mark [15] stands for this setting: dose: 6.0 mg/kg/injection, schedule: Q01DX009 (ip), vehicle: Klucel (hydroxypropylcellulose) (HPC).
[16] abbreviates: dose: 12.0 mg/kg/injection, schedule: Q01DX009 (ip), vehicle: saline with Tween-80.

In the case of `OCc1c(CO)c(-c2ccc(Cl)cc2)n2c1CCC2`, the T/C reads like this: (dose: 25.0 mg/kg/injection, schedule: Q01DX009 (ip), vehicle: distilled water + Tween-80) 94 % of control; (dose: 50.0 mg/kg/injection, schedule: Q01DX009 (ip), vehicle: distilled water + Tween-80) 107 % of control; (dose: 100.0 mg/kg/injection, schedule: Q01DX009 (ip), vehicle: distilled water + Tween-80) 121 % of control; (dose: 200.0 mg/kg/injection, schedule: Q01DX009 (ip), vehicle: distilled water + Tween-80) 198 % of control.
For `Cc1cccc2c1CC(C(C)C)C2` (centres undefined), the T/C is, setting by setting: under setting [1], 105 % of control; under setting [2], 93 % of control.
With `COc1cccc2c1C(=O)c1c(O)c3c(c(O)c1C2=O)C[C@@](O)(C(O)CO)C[C@@H]3OC1CC(N(Cc2ccccc2)Cc2ccccc2)C(O)C(C)O1` (some centres undefined), the T/C is 111 % of control (dose: 6.25 mg/kg/injection, schedule: Q01DX001 (ip), vehicle: water); 166 % of control (dose: 50.0 mg/kg/injection, schedule: Q01DX001 (ip), vehicle: water); 160 % of control (dose: 50.0 mg/kg/injection, schedule: Q01DX009 (ip), vehicle: water); 196 % of control (dose: 100.0 mg/kg/injection, schedule: Q01DX001 (ip), vehicle: water); 232 % of control (dose: 200.0 mg/kg/injection, schedule: Q01DX001 (ip), vehicle: water).
For `O=C1CN(Cc2ccc3c(c2)OCO3)NO1`, the T/C reads like this: under setting [3], 103 % of control and 106 % of control; under setting [4], 109 % of control and 95 % of control; under setting [5], 112 % of control and 107 % of control; under setting [1], 115 % of control and 117 % of control; under setting [2], 115 % of control.
As to `CC(=O)Nc1cscc1NC(C)=O`, the T/C under setting [5] is 94 % of control and 102 % of control; the T/C under setting [1] is 111 % of control and 100 % of control; the T/C under setting [2] is 94 % of control; the T/C under setting [6] is 108 % of control and 99 % of control; the T/C under setting [7] was 96 % of control and 104 % of control.
As for `O=[N+]([O-])c1c(O)c(CNCCCO)cc(CNCCCO)c1O`, the T/C is, setting by setting: (dose: 6.25 mg/kg/injection, schedule: Q01DX009 (ip), vehicle: saline) 102 % of control; under setting [8], 102 % of control.
`CCC(C)(OC(C)=O)C(=O)OC1C(=O)OC2CC3C(C)=CC(O)C(O)C3(C)C3C4(O)OCC23C1C(C)C4O` (centres undefined): the T/C is 100 % of control (dose: 0.25 mg/kg/injection, schedule: Q01DX009 (ip), vehicle: saline + alcohol); 115 % of control (dose: 0.5 mg/kg/injection, schedule: Q01DX009 (ip), vehicle: saline + alcohol); 112 % of control (dose: 1.0 mg/kg/injection, schedule: Q01DX009 (ip), vehicle: saline + alcohol); 109 % of control (dose: 2.0 mg/kg/injection, schedule: Q01DX009 (ip), vehicle: saline + alcohol); 109 % of control (dose: 4.0 mg/kg/injection, schedule: Q01DX009 (ip), vehicle: saline + alcohol).
As for `O=C1CN(CO)C(=O)N1CO`, the T/C is 93 % of control under setting [9]; 97 % of control under setting [10]; 110 % of control (dose: 100.0 mg/kg/injection, schedule: Q01DX009 (ip), vehicle: Klucel (hydroxypropylcellulose) (HPC)); 103 % of control (dose: 200.0 mg/kg/injection, schedule: Q01DX009 (ip), vehicle: Klucel (hydroxypropylcellulose) (HPC)).
Turning to `CS(=O)(=O)Nc1ccc(C(=O)CCN2CCCCCC2)cc1`, the T/C was 122 % of control (dose: 25.0 mg/kg/injection, schedule: Q01DX009 (ip), vehicle: suspension in saline); 98 % of control (dose: 50.0 mg/kg/injection, schedule: Q01DX009 (ip), vehicle: suspension in saline); 96 % of control (dose: 100.0 mg/kg/injection, schedule: Q01DX009 (ip), vehicle: suspension in saline); 92 % of control (dose: 200.0 mg/kg/injection, schedule: Q01DX009 (ip), vehicle: suspension in saline).
For the molecule `O=C(NC(Cc1ccccc1)C(=O)O)c1ccccc1` (centres undefined), the T/C was 112 % of control under setting [5]; 112 % of control and 90 % of control under setting [1]; 96 % of control and 100 % of control under setting [2].
With `OC(c1ccccc1)C(O)C(c1ccccc1)N1CCCCC1` (centres undefined), the T/C was 100 % of control under setting [2], 102 % of control under setting [6] and 111 % of control under setting [7].
Turning to `C[As](C)SCCC(N)C(=O)NC(CCS[As](C)C)C(=O)O` (centres undefined), the T/C by setting is: under setting [11], 86 % of control; under setting [12], 91 % of control; under setting [9], 96 % of control; under setting [10], 96 % of control.
Turning to `NC(CCl)=NCC12CC3CC(CC(C3)C1)C2`, the T/C is 92 % of control under setting [13]; 104 % of control under setting [14]; 92 % of control (dose: 3.13 mg/kg/injection, schedule: Q01DX009 (ip), vehicle: Klucel (hydroxypropylcellulose) (HPC)); 110 % of control and 101 % of control under setting [15]; 101 % of control under setting [11]; 114 % of control and 104 % of control (dose: 12.0 mg/kg/injection, schedule: Q01DX009 (ip), vehicle: Klucel (hydroxypropylcellulose) (HPC)). Also, the T/C runs as follows: under setting [12], 101 % of control; under setting [9], 112 % of control.
As to `C=Cc1cc(OC)c2c(c1)c(=O)oc1c2cc(OC)c2c(O)ccc(C3OC(C(C)O)C(O)C3O)c21` (centres undefined), the T/C under setting [9] was 165 % of control.
For `CCOC(=O)c1[nH]c2cccc3c2c1CC(Br)C3=O` (centres undefined), the T/C reads like this: under setting [16], 98 % of control; under setting [5], 93 % of control; under setting [1], 100 % of control.
On to `CC12CCC3C(CCC4CC(OC(=O)Cc5ccc(N(CCCl)CCCl)cc5)CCC43C)C1CCC(=O)N2` (centres undefined), for which the T/C was 113 % of control (dose: 1.5 mg/kg/injection, schedule: Q01DX009 (ip), vehicle: saline with Tween-80); 106 % of control (dose: 3.0 mg/kg/injection, schedule: Q01DX009 (ip), vehicle: saline with Tween-80); 167 % of control under setting [16].
For `Cc1cc(N=NC(N)=S)c2ccccc2c1O`, the T/C runs as follows: (dose: 3.13 mg/kg/injection, schedule: Q01DX009 (ip), vehicle: saline with Tween-80) 94 % of control; under setting [3], 86 % of control; under setting [4], 87 % of control.
`COc1ccc2c(c1O)-c1cccc3c1[C@@H](C2)N(CCCl)CC3`: the T/C is, setting by setting: (dose: 1.0 mg/kg/injection, schedule: Q01DX009 (ip), vehicle: Klucel (hydroxypropylcellulose) (HPC)) 91 % of control and 100 % of control; (dose: 2.0 mg/kg/injection, schedule: Q01DX009 (ip), vehicle: Klucel (hydroxypropylcellulose) (HPC)) 100 % of control; (dose: 4.0 mg/kg/injection, schedule: Q01DX009 (ip), vehicle: Klucel (hydroxypropylcellulose) (HPC)) 97 % of control and 106 % of control; (dose: 8.0 mg/kg/injection, schedule: Q01DX009 (ip), vehicle: Klucel (hydroxypropylcellulose) (HPC)) 98 % of control and 102 % of control.
`C1CCN(c2c3c(nc4nnnn24)CCC3)CC1`: the T/C runs as follows: under setting [1], 91 % of control; under setting [2], 104 % of control; under setting [6], 92 % of control.
For the molecule `Nc1nc2c(ncn2C2OC(CO)C(O)C2O)c(=O)[nH]1` (centres undefined), the T/C is 120 % of control (dose: 75.0 mg/kg/injection, schedule: Q01DX009 (ip), vehicle: saline with Tween-80); 121 % of control (dose: 1200.0 mg/kg/injection, schedule: Q01DX009 (ip), vehicle: saline with Tween-80); 116 % of control (dose: 2400.0 mg/kg/injection, schedule: Q01DX009 (ip), vehicle: saline with Tween-80).
In the case of `C/C(=N\N=C(/[Se])N1CC2CCC(CC2)C1)c1ccccn1`, the T/C reads like this: (dose: 0.75 mg/kg/injection, schedule: Q01DX009 (ip), vehicle: Klucel (hydroxypropylcellulose) (HPC)) 112 % of control and 92 % of control and 108 % of control; under setting [13], 111 % of control and 99 % of control; under setting [14], 115 % of control and 100 % of control; under setting [15], 120 % of control and 93 % of control and 100 % of control.
Take `Nc1nc(=S)c2ncn(C3CC(O)C(CO)O3)c2[nH]1` (centres undefined): the T/C under setting [8] was 101 % of control; the T/C (dose: 25.0 mg/kg/injection, schedule: Q01DX009 (ip), vehicle: saline) was 96 % of control; the T/C (dose: 50.0 mg/kg/injection, schedule: Q01DX009 (ip), vehicle: saline) was 104 % of control; the T/C (dose: 100.0 mg/kg/injection, schedule: Q01DX009 (ip), vehicle: saline) was 104 % of control; the T/C (dose: 200.0 mg/kg/injection, schedule: Q01DX009 (ip), vehicle: saline) was 103 % of control; the T/C (dose: 400.0 mg/kg/injection, schedule: Q01DX009 (ip), vehicle: saline) is 103 % of control.
